This passage reports IC50 results from patent US20220119411A1, “IMMUNOMODULATORS, COMPOSITIONS AND METHODS THEREOF” (BETTA PHARMACEUTICALS CO., LTD, priority 2018, published 2022).

Molecules are shown by their SMILES.

The IC50 is the concentration that gives 50% inhibition.

For this assay, the target named is T1, PD-1/PD-L1 protein/protein interaction (Homo sapiens, UniProt Q9NZQ7).
T1 construct: Recombinant human PD-L1 protein (19-238) with a His-tag at the C-terminus; purchased AcroBiosystems PD1-H5229 (PD-L1); PD1-H5257 (PD-1)
T1 sequence (Q9NZQ7 19-238): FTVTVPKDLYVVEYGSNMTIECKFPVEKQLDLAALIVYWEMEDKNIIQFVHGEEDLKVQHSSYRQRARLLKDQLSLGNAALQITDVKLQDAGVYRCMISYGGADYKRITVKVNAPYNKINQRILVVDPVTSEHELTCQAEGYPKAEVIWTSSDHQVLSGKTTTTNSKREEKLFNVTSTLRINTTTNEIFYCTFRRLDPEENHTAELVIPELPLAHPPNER
Briefly: PD-1/PD-L1 homogenous time-resolved fluorescence (HTRF) binding assay. The conditions noted are these: recombinant human PD-L1 (19-238)-His 10 nM, human PD-1 (25-167)-Fc 3 nM, 25° C., PBS pH 7.4. The procedure: Resolved Fluorescence (HTRF) Binding Assay
The assays were conducted in a standard black 384-well polystyrene plate with a final volume of 20 μL. Inhibitors were first serially diluted in DMSO and then added to the plate wells before the addition of other reaction components. The final concentration of DMSO in the assay was 1%. The assays were carried out at 25° C. in the PBS buffer (pH 7.4) with 0.05% Tween-20 and 0.1% BSA. Recombinant human PD-L1 protein (19-238) with a His-tag at the C-terminus was purchased from AcroBiosy stems (PD1-H5229). Recombinant human PD-1 protein (25-167) with Fc tag at the C-terminus was also purchased from AcroBiosystems (PD1-H5257). PD-L1 and PD-1 proteins were diluted in the assay buffer and 10 μL was added to the plate well. Plates were centrifuged and proteins were preincubated with inhibitors for 40 min. The incubation was followed by the addition of 10 μL of HTRF detection buffer supplemented with Europium cryptate-labeled anti-human IgG (PerkinElmer-AD0212) specific for Fc and anti-His antibody conjugated to SureLight®—Allophycocyanin (APC, PerkinElmer-AD0059H). After centrifugation, the plate was incubated at 25° C. for 60 min. Before reading on a PHERAstar FS plate reader (665 nm/620 nm ratio). Final concentrations in the assay were—3 nM PD1, 10 nM PD-L1, 1 nM europium anti-human IgG and 20 nM anti-His-Allophycocyanin. IC50 determination was performed by fitting the curve of percent control activity versus the log of the inhibitor concentration using the GraphPad Prism 5.0 software.
Data obtained for the Example compounds using the PD-1/PD-L1 homogenous time-resolved fluorescence (HTRF) binding assay described in Example A is provided in Table 2.
A general note: TR-FRET usually uses a lanthanide donor and a delayed reading to cut background.

For `Cn1c(C(=O)N2CCCc3c(-c4cccc(OCCN5CCOCC5)c4)cccc32)nc2c1CN(CC(=O)O)CC2` [Example 51, 2-(3-methyl-2-(5-(3-(2-morpholinoethoxy)phenyl)-1,2,3,4-tetrahydroquinoline-1-carbonyl)-3,4,6,7-tetrahydro-5H-imidazo[4,5-c]pyridin-5-yl)acetic acid], the half-maximal inhibitory concentration (IC50) was ≤ 0.025 µM.
For `Cn1c(C(=O)N2CCCc3c(-c4cccc(OCCN5CCOCC5)c4)cccc32)nc2c1CCN(CC(=O)O)C2` [Example 52, 2-(1-methyl-2-(5-(3-(2-morpholinoethoxy)phenyl)-1,2,3,4-tetrahydroquinoline-1-carbonyl)-1,4,6,7-tetrahydro-5H-imidazo[4,5-c]pyridin-5-yl)acetic acid] the value was ≤ 0.025 µM; for `O=C(c1nc2c(o1)CN(CCO)CC2)N1CCCc2c(-c3cccc(OCCN4CCOCC4)c3)cccc21` [Example 53, (5-(2-hydroxyethyl)-4,5,6,7-tetrahydrooxazolo[5,4-c]pyridin-2-yl)(5-(3-(2-morpholinoethoxy)phenyl)-3,4-dihydroquinolin-1(2H)-yl)methanone], 0.025 to 0.1 µM; for `O=C(O)CCN1CCc2nc(C(=O)N3CCCc4c(-c5cccc(OCCN6CCOCC6)c5)cccc43)oc2C1` [Example 54, 3-(2-(5-(3-(2-morpholinoethoxy)phenyl)-1,2,3,4-tetrahydroquinoline-1-carbonyl)-6,7-dihydrooxazolo[5,4-c]pyridin-5(4H)-yl)propanoic acid], 0.1 to 0.2 µM.
For `O=C(O)CN1CCc2nc(C(=O)N3CCc4c(-c5ccc6c(c5)OCCO6)cccc43)sc2C1` [Example 55, 2-(2-(4-(2,3-dihydrobenzo[b][1,4]dioxin-6-yl)indoline-1-carbonyl)-6,7-dihydrothiazolo[5,4-c]pyridin-5(4H)-yl)acetic acid] the value was 0.025 to 0.1 µM.
For `O=C(c1nc2c(s1)CN(CCO)CC2)N1CCc2c(-c3ccc4c(c3)OCCO4)cccc21` [Example 56, (4-(2,3-dihydrobenzo[b][1,4]dioxin-6-yl)indolin-1-yl)(5-(2-hydroxyethyl)-4,5,6,7-tetrahydrothiazolo[5,4-c]pyridin-2-yl)methanone] the value was ≤ 0.025 µM; for `CN1CCc2nc(C(=O)N3CCc4c(-c5ccc6c(c5)OCCO6)cccc43)sc2C1` [Example 57, (4-(2,3-dihydrobenzo[b][1,4]dioxin-6-yl)indolin-1-yl)(5-methyl-4,5,6,7-tetrahydrothiazolo[5,4-c]pyridin-2-yl)methanone], ≤ 0.025 µM; for `Cc1c(Nc2nccc3cc(CN4CCCC[C@H]4C(=O)O)cnc23)cccc1-c1cccc2c1CCN2C(=O)c1nc2c(s1)CNCC2` [Example 58, (S)-1-((8-((2-methyl-3-(1-(4,5,6,7-tetrahydrothiazolo[5,4-c]pyridine-2-carbonyl)indolin-4-yl)phenyl)amino)-1,7-naphthyridin-3-yl)methyl)piperidine-2-carboxylic acid], ≤ 0.025 µM.
